Laboratory results from paper PMC7717691, “Design, synthesis, and anticonvulsant effects evaluation of nonimidazole histamine H3 receptor antagonists/inverse agonists containing triazole moiety” (Journal of Enzyme Inhibition and Medicinal Chemistry, 2020).
Counter-ions that a name gives are not always drawn. Like-named read-outs stand apart in the source and are kept apart here.

Experiments:
intracellular cAMP = assay: Effect of compounds administrated alone on the level of intracellular cAMP; type: cell-based; conditions: for effect on the level of cAMP when treated alone: compound alone, ANOVA followed by Dunnett's test, Figure 2
Description: It is well known that H3R is a GPCR coupled with Gαi. When the ligand (histamine) binds to H3R, the dissociated Gαi inhibits the activity of adenylate cyclase (AC) and down-regulates the level of intracellular cAMP. In this CREs driven luciferase assay, when cells were pre-treated by H3R antagonists, the downregulation of cAMP would be inhibited, and the level of intracellular cAMP would regain to the initial level.

H3R = molecular target: T1, H3R (Homo sapiens, UniProt Q9Y5N1); assay: CRE-driven luciferase reporter gene assay, H3R antagonistic activity; type: cell-based; conditions: for % Antagonism 100 nM: 100 nM compound; for % Antagonism 100 nM / % Antagonism 1 μM: HEK-293 cells expressing human H3R, mean ± SD of three experiments; for % Antagonism 1 μM: 1 μM compound; for IC50: CRE luciferase assay, HEK-293 cells, Table 1
T1 construct: expressed in transfected cells
Protocol: cAMP-response element (CRE) reporter gene assay has been extensively used to evaluate the efficacy of GPCR antagonists or agonists. […] Initially, compounds and positive controls were tested at two concentrations (100 nM and 1 µM) to obtain the preliminary investigation of their H3R antagonistic activities. In the assays, the antagonistic activities was positively correlated with the rise of the fluorescence value and indicated by the % antagonism. For the prominent compounds IC50 values were determined at additional assays.
Human thalamus poly-A RNA (Clontech, Palo Alto, CA, USA) was used to clone the hH3R gene by RT-PCR. DNA PCR primers were designed in the light of the reported human histamine receptor gene sequences (GenBank accession no.AF140538). HEK-293 cells were cultured and transfected for the luciferase assay. The detailed procedures were described in the previous publication.
Stable HEK-293 cells, which had been co-transfected with H3R and pCRE-Luc, were seeded in a 96-well plate overnight, and were grown to 90–95% confluence[43]^,[44]. Then the cells were treated with various concentrations of tested compounds in serum-free DMEM and incubated for 20 min. Cells were then stimulated with 100 nM Histamine in serum-free DMEM containing 2 µM Forskolin and incubated for 4 h at 37 °C. Firefly luciferase assay kits (Ken-real, Shanghai, China) were used to determine the luciferase activity.

PTZ = conditions: cited from earlier work
MES [1] = conditions: cited from earlier work
MES-induced convulsions = MES-induced convulsions model; type: in vivo; conditions: mice; for protection against MES-induced convulsions (reduction or abolition of THLE): 10 mg/kg, i.p., 30 min before stimulation, vs saline group
Description: Protection for the mice was defined as the reduction or abolition of the tonic hind limb extension (THLE) in the MES model in mice.
Ear stimulation with alternating current (0.2 s, 60 Hz, 50 mA) was used to induce the seizures in mice. The reduction or abolition of the hind limb tonic extension (THLE) of mice was considered protective against the MES-induced seizures[29]^,[48]. […]

MES [2] = conditions: cited from earlier work; remark: listed apart in the source

T1 sequence (Q9Y5N1 whole entry): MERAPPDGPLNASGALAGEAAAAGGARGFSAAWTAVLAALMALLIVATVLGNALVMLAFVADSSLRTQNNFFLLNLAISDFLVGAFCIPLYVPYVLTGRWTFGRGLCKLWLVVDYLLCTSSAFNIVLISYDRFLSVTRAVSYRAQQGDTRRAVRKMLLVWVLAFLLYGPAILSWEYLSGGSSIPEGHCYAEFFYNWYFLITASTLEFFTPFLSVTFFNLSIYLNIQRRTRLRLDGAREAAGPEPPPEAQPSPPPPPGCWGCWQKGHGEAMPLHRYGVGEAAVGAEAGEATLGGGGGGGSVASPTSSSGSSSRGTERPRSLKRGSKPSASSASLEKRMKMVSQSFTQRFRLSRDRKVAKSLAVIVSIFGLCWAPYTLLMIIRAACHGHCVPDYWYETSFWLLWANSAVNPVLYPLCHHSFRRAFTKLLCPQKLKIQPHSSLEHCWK

| SMILES | melting point | % Antagonism 100 nM (H3R) | % Antagonism 1 μM (H3R) | protection against MES-induced convulsions (reduction or abolition of THLE) (MES-induced convulsions) | other results |
| --- | --- | --- | --- | --- | --- |
| c1cc(-n2cnnc2)ccc1OCCCCCN1CCCCC1 (as salt: HCl) [Compound 3q, 1-(5-(4-(4H-1,2,4-triazol-4-yl)phenoxy)pentyl)piperidine] | 70 to 74 °C |  |  |  |  |
| O=C(c1ccc(OCCCc2cnc[nH]2)cc1)C1CC1 [CPX, ciproxifan, reference compound] |  | 33.96 ± 8.59% | 63.05 ± 9.33% |  | effect on the level of cAMP when treated alone (intracellular cAMP): no significant effects |
| NC(=NCc1ccc(Cl)cc1)SCCCc1cnc[nH]1 [Clobenpropit] |  |  |  |  | PTZ (rats) (PTZ; 10 μg & 20 μg icv): protection; MES (mice) (MES [1]; 0.3, 1, 3 mg/kg i.p.): protection |
| CCN(CC)CCCOc1ccc(-n2cnnc2)cc1.Cl [Compound 3a, 3-(4-(4H-1,2,4-triazol-4-yl)phenoxy)-N,N-diethylpropan-1-amine hydrochloride] | 105 to 106 °C | 49.85 ± 9.73% | 223.76 ± 7.56% | moderate protection | effect on the level of cAMP when treated alone (intracellular cAMP): no significant effects; IC50 (H3R): 2990 nM |
| CCCN(CCC)CCCOc1ccc(-n2cnnc2)cc1.Cl [Compound 3b, 3-(4-(4H-1,2,4-triazol-4-yl)phenoxy)-N,N-dipropylpropan-1-amine hydrochloride] | 180 to 183 °C | 13.24 ± 4.83% | 15.02 ± 4.03% |  |  |
| Cl.c1cc(-n2cnnc2)ccc1OCCCN1CCCC1 [Compound 3c, 4-(4-(3-(pyrrolidin-1-yl)propoxy)phenyl)-4H-1,2,4-triazole hydrochloride] | 120 to 122 °C | 32.23 ± 5.69% | 143.98 ± 16.16% | did not achieve a significant difference from the control group | effect on the level of cAMP when treated alone (intracellular cAMP): no significant effects; IC50 (H3R): 553 nM |
| Cl.Cl.c1cc(-n2cnnc2)ccc1OCCCN1CCNCC1 [Compound 3d, 1-(3-(4-(4H-1,2,4-triazol-4-yl)phenoxy)propyl)piperazine dihydrochloride] | 146 to 148 °C | 11.33 ± 5.86% | 79.4 ± 4.50% |  |  |
| CN1CCN(CCCOc2ccc(-n3cnnc3)cc2)CC1.Cl [Compound 3e, 1-(3-(4-(4H-1,2,4-triazol-4-yl)phenoxy)propyl)-4-methylpiperazine hydrochloride] | 220 to 223 °C | 9.86 ± 0.87% | 21.78 ± 3.04% |  |  |
| c1ccc(N2CCN(CCCOc3ccc(-n4cnnc4)cc3)CC2)cc1 [Compound 3f, 1-(3-(4-(4H-1,2,4-triazol-4-yl)phenoxy)propyl)-4-phenylpiperazine] | 172 to 174 °C | 9.96 ± 10.9% | 24.41 ± 6.30% |  |  |
| Cl.c1cc(-n2cnnc2)ccc1OCCCN1CCOCC1 [Compound 3g, 4-(3-(4-(4H-1,2,4-triazol-4-yl)phenoxy)propyl)morpholine hydrochloride] | 237 to 239 °C | −0.76 ± 4.87% | 20.24 ± 7.56% | moderate protection |  |
| c1cc(-n2cnnc2)ccc1OCCCN1CCCCC1 [Compound 3h, 1–(3-(4-(4H-1,2,4-triazol-4-yl)phenoxy)propyl)piperidine] | 249 to 252 °C | 10.56 ± 7.94% | 239.79 ± 3.17% | moderate protection | effect on the level of cAMP when treated alone (intracellular cAMP): no significant effects; IC50 (H3R): 127 nM |
| c1ccc(C2CCN(CCCOc3ccc(-n4cnnc4)cc3)CC2)cc1 [Compound 3i, 1-(3-(4-(4H-1,2,4-triazol-4-yl)phenoxy)propyl)-4-phenylpiperidine] | 124 to 126 °C | 5.19 ± 2.06% | 16.45 ± 1.90% |  |  |
| NC(=O)C1CCN(CCCOc2ccc(-n3cnnc3)cc2)CC1 [Compound 3j, 1-(3-(4-(4H-1,2,4-triazol-4-yl)phenoxy)propyl)piperidine-4-carboxamide] | 196 to 198 °C | −4.2 ± 3.11% | 6.12 ± 2.05% |  |  |
| Cc1nncn1-c1ccc(OCCCN2CCCCC2)cc1.Cl [Compound 3k, 1-(3-(4–(3-methyl-4H-1,2,4-triazol-4-yl)phenoxy)propyl)piperidine hydrochloride] | 240 to 242 °C | 133.91 ± 8.91% | 183.54 ± 14.41% | did not achieve a significant difference from the control group | effect on the level of cAMP when treated alone (intracellular cAMP): no significant effects; IC50 (H3R): 21 nM |
| c1ccc(-c2nncn2-c2ccc(OCCCN3CCCCC3)cc2)cc1 [Compound 3l, 1-(3-(4-(3-phenyl-4H-1,2,4-triazol-4-yl)phenoxy)propyl)piperidine] | 88 to 90 °C | 148.62 ± 4.43% | 169.04 ± 15.04% | moderate protection | effect on the level of cAMP when treated alone (intracellular cAMP): no significant effects; IC50 (H3R): 7.81 nM |
| c1ccc(-c2ccc(-c3nncn3-c3ccc(OCCCN4CCCCC4)cc3)cc2)cc1 [Compound 3n, 1-(3-(4-(3-([1,1’-biphenyl]-4-yl)-4H-1,2,4-triazol-4-yl)phenoxy)propyl)piperidine] | 66 to 68 °C | 1.03 ± 7.79% | 3.36 ± 1.27% |  |  |
| Cl.c1cc(-n2cnnc2)ccc1OCCN1CCCCC1 [Compound 3o, 1-(2-(4–(4H-1,2,4-triazol-4-yl)phenoxy)ethyl)piperidine hydrochloride] | 85 to 87 °C | 45.04 ± 3.61% | 94.20 ± 2.60% | moderate protection | IC50 (H3R): 250 nM |
| Cl.c1cc(-n2cnnc2)ccc1OCCCCN1CCCCC1 [Compound 3p, 1-(4–(4-(4H-1,2,4-triazol-4-yl)phenoxy)butyl)piperidine hydrochloride] | 80 to 82 °C | 25.00 ± 3.95% | 90.52 ± 5.71% | did not achieve a significant difference from the control group | IC50 (H3R): 3440 nM |
| c1cc(-n2cnnc2)ccc1OCCCCCN1CCCCC1 [Compound 3q, 1-(5-(4-(4H-1,2,4-triazol-4-yl)phenoxy)pentyl)piperidine] |  | 1.88 ± 12.38% | 2.39 ± 13.85% |  |  |
| CCC(C)(C)c1ccc(OCCCN2CCCCC2)cc1 [DL-77] |  |  |  |  | MES (rats) (MES [2]; 5, 10, 15 mg/kg): protection |
| O=C1NC(c2ccccc2)(c2ccccc2)C(=O)N1CCCN1CCCCC1 [H3R ligand I] |  |  |  |  | PTZ (rats) (PTZ; 10 mg/kg i.p.): protection; MES (rats) (MES [2]; 1 mg/kg i.p.): protection |
| NCCc1c[nH]cn1 [Histamine] |  |  |  |  | effect on the level of cAMP when treated alone (intracellular cAMP): no significant effects |
| CCCCCCOc1ccc(-n2cnnc2)cc1 [III] |  |  |  |  | MES (mice) (MES [1]; 10 mg/kg i.p.): protection |
| C[C@@H](N)Cc1cnc[nH]1 [RAMH, R-(α)-methyl-histamine, reference compound] |  |  |  |  | effect on duration of THLE, administered alone (MES-induced convulsions; 10 mg/kg i.p. alone, p > 0.05 vs saline): did not affect the duration of THLE |
| C=C[C@@]1(C)CC(=O)[C@]2(O)[C@@]3(C)[C@@H](O)CCC(C)(C)[C@@H]3[C@H](O)[C@H](OC(C)=O)[C@@]2(C)O1 [forskolin, reference compound] |  |  |  |  | rise of the cAMP level compared to the control group (intracellular cAMP; forskolin 2 µM): more than 200 times |
